Structures are written as SMILES.

The assay has as its target SARS-CoV-2 3CLpro (Severe acute respiratory syndrome coronavirus 2, UniProt P0DTD1). The assay is described as follows: biochemical.
[1] abbreviates: read-out: SARS-CoV-2 3CLpro Inhibition (%).

As usually defined, the IC50 is the midpoint of a concentration-inhibition curve. Higher therefore signals a need for much substance. Broadly, the inhibition is the change of the read-out against control, counted positive when it falls. `CC(C)(C)[C@H](NC(=O)C(F)(F)F)C(=O)N1C[C@@H]2CCC[C@@H]2[C@H]1C(=O)N[C@H](C#N)C[C@@H]1CCNC1=O` [1a, (1S,3aR,6aS)-N-((S)-1-cyano-2-((S)-2-oxopyrrolidin-3-yl)ethyl)-2-((S)-3,3-dimethyl-2-(2,2,2-trifluoroacetamido)butanoyl)octahydrocyclopenta[c]pyrrole-1-carboxamide] displayed an IC50 of 18.1 ± 2.35 nM. In addition, under setting [1], the inhibition at 0.02 µM worked out at 24%, the inhibition at 0.1 µM is 82.5%, the inhibition at 1 µM turned out to be 88.9% and the inhibition at 10 µM was determined as 88.3%.

These data come from PMC10166615 (Bioorganic & Medicinal Chemistry, 2023).
